Data taken from patent US20220096706A1, “ELECTROSPUN NANOFIBER-BASED DRESSINGS AND METHODS OF MANUFACTURE AND USE THEREOF” (BOARD OF REGENTS OF THE UNIVERSITY OF NEBRASKA, priority 2019, published 2022).
Non-standard residues stand in square brackets, D forms with d. No end group written: not given here. Bip = N[C@@H](Cc1ccc(-c2ccccc2)cc1)C(=O)O

What was measured:
[1] = in biofilm; Lawrence, et al. (1994); cited from earlier work
[2] = test system: resistant ESKAPE pathogens, including persisters and biofilms; conditions: cited from earlier work
S. aureus USA300 = conditions: compared to either LL-37 or GF-17; cited from earlier work
[3] = test system: Staphylococcus aureus USA300; conditions: cited from earlier work
MRSA USA300 biofilm = format: in vivo, type II diabetic mice; conditions: 24 hours MRSA inoculation and subsequent 24 hour mupirocin 2% treatment
Method: Briefly, MRSA was grown in TSB overnight. Subsequently, 100 μL bacterial strain was pipetted into 4 mL fresh TSB medium for 3 hours followed by PBS washing for three times. Then, the bacterial concentration was adjusted to 1×10^8 CFU/mL and stored in the ice box before use. One hundred female 005314-TALLYHO/JngJ diabetic defective mice (10-11 weeks, 30-35 g, GLU>200 mg/dL) fed with standard pellet diet and water were used.
The biofilm was established in 005314-TALLYHO/JngJ mice excisional wounds. Two 6 mm-diameter full thickness wounds were created on the back of a mouse using a disposable biopsy punch (Integra Miltex®, Kai Medical, USA) and fixed with a wound splint (Grace Bio-labs, Inc, Bend, Oreg.). The wounds were all inoculated with 10 μL of 1×10^8 CFU/mL MRSA instantly after surgery, and mupirocin 2% was applied to treat the wounds at day 2 (24 hours after surgery). Then, the surrounding and wound tissue was collected using an 8 mm-diameter punch and the biofilm was confirmed by CFU count, LIVE/DEAD® staining and SEM observation.
The biofilm formation was performed as above-mentioned. The mice were then divided into control groups and peptide groups. Control groups' wounds were treated with 6-mm diameter F127-PCL core-shell nanofiber discs alone. […] All the dishes were inoculated in a 37° C. microbial incubator for 18 hours and the CFU numbers were counted. […]

MRSA = test: Antibiotic agar inhibition (MRSA inhibition zone) test; format: cell-based, Staphylococcus aureus; conditions: FIG. 6E
MRSA biofilms = test: In vivo antibiofilm efficacy test, MRSA biofilm wounds (B6.BKS(D)-Leprdb/J mice); design: species or system type II diabetic mice; conditions: 24 hours and 48 hours inoculation followed by 24 hour treatment of 2% mupirocin ointment
Method: A biofilm-containing chronic wound model was established. Briefly, MRSA was grown in TSB overnight. Subsequently, 100 μL of bacterial strain was pipetted into 4 mL of fresh TSB medium and cultivated for 3 hours followed by PBS washing for three times. Then, the bacterial concentration was adjusted to 1×10^8 CFU/mL and stored in the ice box before use. Nine […] 000697-B6.BKS(D)-Leprdb/J diabetic defective mice (male, 10-11 weeks, 50-55 g, GLU>200 mg/dL) fed with standard pellet diet and water were used.
The biofilm was established in 000697-B6.BKS(D)-Leprdb/J mice excisional wounds. […]
After the biofilm formation was performed, F127/17BIPHE2-PCL-S core-shell nanofiber membranes or Janus-type dressings were put on the wound, different dressing changes strategies were applied to treat the biofilm formed wound. […] All the dishes were inoculated in a 37° C. microbial incubator for 18 hours, and the CFU numbers were counted.
To further evaluate the anti-biofilm efficacy, MRSA biofilms were established in type II diabetic mice wounds (FIG. 21). […] The CFU of MRSA biofilms (10^10-10^12 CFU/g) formed after 24 hours and 48 hours of bacteria inoculation and removal of planktonic bacteria was quantified (FIG. 21B). […]

Molecule: RRRWWWWV; SEQ ID NO: 7 (Antimicrobial peptide) [W379, peptide with merely eight amino acids]
- diffusion coefficient of peptides (D) [1]: 3.1×10^−12 m^2/s
- antimicrobial activity against resistant ESKAPE pathogens [2]: antimicrobial activity

Molecule: GX1KRLVQRLKDX2LRNLV, wherein X1 and X2 are biphenylalanines (SEQ ID NO: 2) (G[Bip]KRLVQRLKD[Bip]LRNLV) [17BIPHE2, molecularly engineered human cathelicidin LL-37 peptide]
- protection of wax moths from S. aureus USA300 infection (S. aureus USA300): optimized protection

Molecule: LL-37
- inhibition of bacterial attachment / disruption of preformed biofilms ([3]; Mishra, et al. (2016)): unable to inhibit bacterial attachment or disrupt preformed biofilms
- inhibition of biofilm growth of Staphylococcus aureus USA300 ([3]; in vitro, Haisma, et al. (2014)): only at a low concentration

Molecule: C/C(=C\C(=O)OCCCCCCCCC(=O)O)C[C@@H]1OC[C@H](C[C@@H]2O[C@H]2[C@@H](C)[C@H](C)O)[C@@H](O)[C@H]1O [mupirocin 2%, mupirocin]
- bacteria resided on surgical site and surrounding tissues (MRSA USA300 biofilm): 10^10 CFU/g
- killing of planktonic bacteria in antibiotic agar inhibition test (MRSA): kill the planktonic bacteria very effectively
- CFU of MRSA biofilms (MRSA biofilms): 10^10-10^12 CFU/g
